Experimental data published in ChEMBL document CHEMBL1201862, “PubChem BioAssay data set” (2004).
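Five concentrations, 48 hours, 96-well plates. At the GI50, growth is halved.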 The source made the active and inactive calls. Cut-off read from the data, not from the text of the source: active = GI50 up to about 1.1 µM and inactive = higher.

Key:
Test in all cases: NCI-60 cell line screen, 48 h
786-0 = system: 786-0
COLO 205 = system: COLO 205
HCC 2998 = system: HCC 2998
HCT-116 = system: HCT-116
HOP-92 = system: HOP-92
HT-29 = system: HT-29
IGROV-1 = system: IGROV-1
Malme-3M = system: Malme-3M
OVCAR-3 = system: OVCAR-3
SF-295 = system: SF-295
SK-MEL-28 = system: SK-MEL-28
SNB-19 = system: SNB-19
SNB-78 = system: SNB-78
SR = system: SR
SW-620 = system: SW-620
UO-31 = system: UO-31
BT-549 = system: BT-549
Hs-578T = system: Hs-578T
MDA-MB-435 = system: MDA-MB-435
PC-3 = system: PC-3

COc1nc2c(nc(N)n2C2OC(CO)C(O)C(O)C2O)c(=O)n1C (centres undefined)
GI50 (786-0): > 100 µM (inactive)
GI50 (COLO 205): > 100 µM (inactive)
GI50 (HCC 2998): > 100 µM (inactive)
GI50 (HCT-116): > 100 µM (inactive)
GI50 (HOP-92): > 100 µM (inactive)
GI50 (HT-29): > 100 µM (inactive)
GI50 (IGROV-1): > 100 µM (inactive)
GI50 (Malme-3M): > 100 µM (inactive)
GI50 (OVCAR-3): > 100 µM (inactive)
GI50 (SF-295): > 100 µM (inactive)
GI50 (SK-MEL-28): > 100 µM (inactive)
GI50 (SNB-19): > 100 µM (inactive)
GI50 (SNB-78): > 100 µM (inactive)
GI50 (SR): > 100 µM (inactive)
GI50 (SW-620): > 100 µM (inactive)
GI50 (UO-31): > 100 µM (inactive)

C=C1C(=O)OC2/C=C(\COC(C)=O)CCC(OC(C)=O)C3=CC(OC3=O)C12 (centres undefined)
GI50 (786-0): 6.56 µM (inactive)
GI50 (BT-549): 5.38 µM (inactive)
GI50 (COLO 205): 2.14 µM (inactive)
GI50 (HCC 2998): 14.4 µM (inactive)
GI50 (HCT-116): 2.48 µM (inactive)
GI50 (HOP-92): 3.49 µM (inactive)
GI50 (HT-29): 3.9 µM (inactive)
GI50 (Hs-578T): 24.2 µM (inactive)
GI50 (IGROV-1): 23.8 µM (inactive)
GI50 (MDA-MB-435): 10.6 µM (inactive)
GI50 (Malme-3M): 2.15 µM (inactive)
GI50 (OVCAR-3): 4.15 µM (inactive)
GI50 (PC-3): 16.4 µM (inactive)
GI50 (SF-295): 18 µM (inactive)
GI50 (SK-MEL-28): 3.99 µM (inactive)
GI50 (SNB-19): 18 µM (inactive)
GI50 (SNB-78): 2.67 µM (inactive)
GI50 (SR): 2.3 µM (inactive)
GI50 (SW-620): 1.77 µM (inactive)
GI50 (UO-31): 17.3 µM (inactive)

Nc1nccc2c1ncn2C1C=C(CO)C(O)C1O (centres undefined)
GI50 (786-0): 60.1 µM (inactive)
GI50 (BT-549): 83.2 µM (inactive)
GI50 (COLO 205): 19.7 µM (inactive)
GI50 (HCC 2998): 48.2 µM (inactive)
GI50 (HCT-116): 1.28 µM (inactive)
GI50 (HOP-92): 70.1 µM (inactive)
GI50 (HT-29): 6.37 µM (inactive)
GI50 (IGROV-1): > 95.5 µM (inactive)
GI50 (MDA-MB-435): > 100 µM (inactive)
GI50 (Malme-3M): 43.6 µM (inactive)
GI50 (OVCAR-3): > 94.4 µM (inactive)
GI50 (PC-3): > 100 µM (inactive)
GI50 (SF-295): > 100 µM (inactive)
GI50 (SK-MEL-28): 2.73 µM (inactive)
GI50 (SNB-19): 62.7 µM (inactive)
GI50 (SNB-78): > 100 µM (inactive)
GI50 (SR): 3.29 µM (inactive)
GI50 (SW-620): 1.75 µM (inactive)
GI50 (UO-31): 3.39 µM (inactive)

CNC(=S)/N=C(\N)N(C)C
GI50 (786-0): > 100 µM (inactive)
GI50 (COLO 205): > 100 µM (inactive)
GI50 (HCC 2998): > 100 µM (inactive)
GI50 (HCT-116): > 100 µM (inactive)
GI50 (HOP-92): > 100 µM (inactive)
GI50 (HT-29): > 100 µM (inactive)
GI50 (IGROV-1): > 100 µM (inactive)
GI50 (Malme-3M): > 100 µM (inactive)
GI50 (OVCAR-3): > 100 µM (inactive)
GI50 (SF-295): > 100 µM (inactive)
GI50 (SK-MEL-28): > 100 µM (inactive)
GI50 (SNB-19): > 100 µM (inactive)
GI50 (SNB-78): > 100 µM (inactive)
GI50 (SR): > 100 µM (inactive)
GI50 (SW-620): > 100 µM (inactive)
GI50 (UO-31): > 100 µM (inactive)

CC1=C(/C=C/C(C)=C/C2CC(N(C)C)=CC(=O)O2)C(C)(C)CCC1 (centres undefined)
GI50 (786-0): 15.4 µM (inactive)
GI50 (COLO 205): 14.1 µM (inactive)
GI50 (HCC 2998): 13.6 µM (inactive)
GI50 (HCT-116): 12.9 µM (inactive)
GI50 (HOP-92): 16.4 µM (inactive)
GI50 (HT-29): 13.2 µM (inactive)
GI50 (IGROV-1): 14.8 µM (inactive)
GI50 (Malme-3M): 14.4 µM (inactive)
GI50 (OVCAR-3): 11.5 µM (inactive)
GI50 (SF-295): 13 µM (inactive)
GI50 (SK-MEL-28): 16.2 µM (inactive)
GI50 (SNB-19): 15.2 µM (inactive)
GI50 (SNB-78): 19.5 µM (inactive)
GI50 (SR): 8.09 µM (inactive)
GI50 (SW-620): 16.2 µM (inactive)
GI50 (UO-31): 10.7 µM (inactive)

Cc1c(C)c(CC(=O)N2CC2)c(C)c(C)c1CC(=O)N1CC1
GI50 (786-0): 3.56 µM (inactive)
GI50 (BT-549): 21.9 µM (inactive)
GI50 (COLO 205): 14.7 µM (inactive)
GI50 (HCC 2998): 11.4 µM (inactive)
GI50 (HCT-116): 9.02 µM (inactive)
GI50 (HOP-92): 9.48 µM (inactive)
GI50 (HT-29): 6.93 µM (inactive)
GI50 (Hs-578T): 30.3 µM (inactive)
GI50 (IGROV-1): 17.1 µM (inactive)
GI50 (MDA-MB-435): 16 µM (inactive)
GI50 (Malme-3M): 12.1 µM (inactive)
GI50 (OVCAR-3): 19.5 µM (inactive)
GI50 (PC-3): 16 µM (inactive)
GI50 (SF-295): 3.4 µM (inactive)
GI50 (SK-MEL-28): 17 µM (inactive)
GI50 (SNB-19): 10.6 µM (inactive)
GI50 (SNB-78): 13.7 µM (inactive)
GI50 (SR): 0.33 µM (active)
GI50 (SW-620): 14.5 µM (inactive)
GI50 (UO-31): 13.5 µM (inactive)

COc1c(OC(C)=O)c(OC(C)=O)cc2c1-c1ccc(SC)c(=O)cc1C(NC(C)=O)CC2 (centres undefined)
GI50 (786-0): 1.69 µM (inactive)
GI50 (BT-549): 0.201 µM (active)
GI50 (COLO 205): 1.65 µM (inactive)
GI50 (HCC 2998): 0.454 µM (active)
GI50 (HCT-116): 0.685 µM (active)
GI50 (HOP-92): 0.425 µM (active)
GI50 (HT-29): 0.461 µM (active)
GI50 (Hs-578T): 0.22 µM (active)
GI50 (IGROV-1): 0.933 µM (active)
GI50 (MDA-MB-435): 0.179 µM (active)
GI50 (Malme-3M): 0.468 µM (active)
GI50 (OVCAR-3): 0.142 µM (active)
GI50 (PC-3): 2.14 µM (inactive)
GI50 (SF-295): 1.45 µM (inactive)
GI50 (SK-MEL-28): 0.342 µM (active)
GI50 (SNB-19): 0.42 µM (active)
GI50 (SNB-78): 0.287 µM (active)
GI50 (SR): 0.448 µM (active)
GI50 (SW-620): 0.959 µM (active)
GI50 (UO-31): 71.9 µM (inactive)

CCOC(=O)N(c1ccccc1)N(CC)C(=O)/C(C)=N/Nc1ccc([N+](=O)[O-])cc1
GI50 (786-0): 17.1 µM (inactive)
GI50 (COLO 205): 17.2 µM (inactive)
GI50 (HCC 2998): 18 µM (inactive)
GI50 (HCT-116): 14.1 µM (inactive)
GI50 (HOP-92): 15.5 µM (inactive)
GI50 (HT-29): 17.1 µM (inactive)
GI50 (IGROV-1): 17.3 µM (inactive)
GI50 (Malme-3M): 17.6 µM (inactive)
GI50 (OVCAR-3): 16.2 µM (inactive)
GI50 (SF-295): 16.6 µM (inactive)
GI50 (SK-MEL-28): 17.3 µM (inactive)
GI50 (SNB-19): 16.2 µM (inactive)
GI50 (SNB-78): 20.8 µM (inactive)
GI50 (SR): 21.7 µM (inactive)
GI50 (SW-620): 19.3 µM (inactive)
GI50 (UO-31): 14.8 µM (inactive)

Nc1ccc(/N=N/c2ccc(-c3ccc(/N=N/c4c(S(=O)(=O)O)cc5cc(S(=O)(=O)O)c(/N=N/c6ccc([N+](=O)[O-])cc6)c(N)c5c4O)cc3)cc2)c2cc(S(=O)(=O)O)ccc12
GI50 (786-0): > 100 µM (inactive)
GI50 (COLO 205): > 100 µM (inactive)
GI50 (HCC 2998): > 100 µM (inactive)
GI50 (HCT-116): > 100 µM (inactive)
GI50 (HOP-92): 97.7 µM (inactive)
GI50 (HT-29): > 100 µM (inactive)
GI50 (IGROV-1): > 100 µM (inactive)
GI50 (Malme-3M): > 100 µM (inactive)
GI50 (OVCAR-3): > 100 µM (inactive)
GI50 (SF-295): 84.5 µM (inactive)
GI50 (SK-MEL-28): > 100 µM (inactive)
GI50 (SNB-19): > 100 µM (inactive)
GI50 (SNB-78): > 100 µM (inactive)
GI50 (SR): > 100 µM (inactive)
GI50 (SW-620): > 100 µM (inactive)
GI50 (UO-31): > 100 µM (inactive)

COc1cc(/C=C(\C#N)C(N)=C(C#N)C#N)cc(O)c1O
GI50 (786-0): > 100 µM (inactive)
GI50 (BT-549): > 100 µM (inactive)
GI50 (COLO 205): > 100 µM (inactive)
GI50 (HCC 2998): > 100 µM (inactive)
GI50 (HCT-116): > 70.5 µM (inactive)
GI50 (HOP-92): > 68.4 µM (inactive)
GI50 (HT-29): > 83.9 µM (inactive)
GI50 (Hs-578T): 42.9 µM (inactive)
GI50 (IGROV-1): > 66.8 µM (inactive)
GI50 (MDA-MB-435): 59.3 µM (inactive)
GI50 (Malme-3M): > 100 µM (inactive)
GI50 (OVCAR-3): > 56.4 µM (inactive)
GI50 (PC-3): > 100 µM (inactive)
GI50 (SF-295): > 77.1 µM (inactive)
GI50 (SK-MEL-28): > 100 µM (inactive)
GI50 (SNB-19): > 87.5 µM (inactive)
GI50 (SNB-78): > 100 µM (inactive)
GI50 (SR): 35.1 µM (inactive)
GI50 (SW-620): > 76.4 µM (inactive)
GI50 (UO-31): > 77.8 µM (inactive)
